How the values were obtained:
Format in all cases: cell-based
[1] = system: RPMI8226; assay: Viability assay by flow cytometry; details: read-out: LC50 (Viability); RPMI8226, 48 hrs
[2] = system: KMS11; assay: Viability assay by flow cytometry; details: read-out: LC50 (Viability); KMS11, 48 hrs
[3] = system: MM cell lines (RPMI8226, U266, MM1.S, KMS11); assay: Viability assays, range over the four MM cell lines; details: read-out: LC50, range over MM cell lines
[4] = system: U266; assay: Viability assay by flow cytometry
[5] = system: MM cell lines (RPMI8226, U266, MM1.S, KMS11); assay: Proliferation assays, range over the four MM cell lines; details: read-out: GI50, range over MM cell lines
[6] = system: MM1.S; assay: Viability assay by flow cytometry
[7] = system: PIM2 expression in U266; assay: Western blot of PIM2 protein expression; details: U266, IL-6 25 ng/ml
[8] = system: PIM2 expression in MM1.S; assay: Western blot of PIM2 protein expression; details: IL-6 25 ng/ml
[9] = Homo sapiens, MM1.S, 48 h, read-out: cell viability

`N[C@@H]1CCCN(c2c(/C=C3\SC(=O)NC3=O)cccc2-c2ccccc2)C1` [AZD1208] was tested, and the CC50 [1] was 30 µM, the CC50 [2] was 31.3 µM and the CC50 [3] was 23 to 56 µM. It also gave a CC50 ([4]; read-out: LC50 (Viability), U266, 48 hrs) of 56.6 µM, a GI50 [5] of 0.7 to 4.7 µM and a CC50 ([6]; read-out: LC50 (Viability), MM1S, 48 hrs) of 23.7 µM.
In the case of `CC(C)C[C@H](NC(=O)[C@H](Cc1ccccc1)NC(=O)c1cnccn1)B(O)O` [bortezomib], the viability at 0.0015 µM [6, 9] is reported as 18%.
Work on `C[C@@H]1C[C@H]2[C@@H]3CCC4=CC(=O)C=C[C@]4(C)[C@@]3(F)[C@@H](O)C[C@]2(C)[C@@]1(O)C(=O)CO` [dexamethasone] yielded a viability at 5 µM [6, 9] of 55%.
`N[C@@H](Cc1ccc(N(CCCl)CCCl)cc1)C(=O)O` [melphalan] gave a viability at 4 µM ([4]; Homo sapiens, U-266, read-out: cell viability) of 58% and a viability at 2 µM [6, 9] of 36%.
With “rIL-6: Recombinant IL-6 purchased from R&D Systems” the “upregulation of PIM2” value [7] was 1.3 fold and the “upregulation of PIM2” value [8] was 3.2 fold.

Reference: article PMC5537056 (Leukemia, 2016)
